Results on 17 compounds are retold here after patent US20020026052A1, “3-cyanoquinolines, 3-cyano-1,6-naphthyridines, and 3-cyano-1,7-naphthyridines as protein kinase inhibitors” (American Home Products Corporation, priority 2000, published 2002).

In general, melting point refers to the temperature of the solid-liquid transition. In turn, `COc1cc(Nc2c(C#N)cnc3cc(-c4ccc(CN5CCN(C)CC5)cn4)ccc23)c(Cl)cc1Cl` registered a melting point of 212 to 215 °C.

`COc1cc(Nc2c(C#N)cnc3cc(-c4cccc(CN5CCOCC5)n4)ccc23)c(Cl)cc1Cl` registered a melting point of 181 to 183 °C.

For `COc1cc(Nc2c(C#N)cnc3cc(-c4cc(CN5CCOCC5)ccn4)ccc23)c(Cl)cc1Cl`, the melting point is 180 to 182 °C.

The compound `COc1cc(Nc2c(C#N)cnc3cc(-c4cncc(CN5CCOCC5)c4)ccc23)c(Cl)cc1Cl` gave a melting point of 141 to 143 °C.

`COc1cc(Nc2c(C#N)cnc3cc(-c4ccc(CN5CCOCC5)cn4)ccc23)c(Cl)cc1Cl`: the melting point lay within 220 to 222 °C.

For the compound `COc1cc(Nc2c(C#N)cnc3cc(-c4ccc(CN5CCOCC5)nc4)ccc23)c(Cl)cc1Cl`, the melting point lay within 195 to 197 °C.

On to `N#Cc1cnc2cc(-c3csc(CN4CCOCC4)c3)ccc2c1Nc1ccc(Oc2ccccc2)cc1` [Example 7, 7-[5-(4-Morpholinylmethyl)-3-thienyl]-4-(4-phenoxyanilino)-3-quinolinecarbonitrile], for which the melting point lay within 221 to 223 °C.

`N#Cc1cnc2cc(-c3csc(CN4CCOCC4)c3)ccc2c1Nc1ccc(Cc2ccccc2)cc1` [Example 8, 4-(4-Benzylanilino)-7-[5-(4-morpholinylmethyl)-3-thienyl]-3-quinolinecarbonitrile] returned a melting point of 228 to 230 °C.

`N#Cc1cnc2cc(C#CCO)ccc2c1Nc1ccc(Cl)cc1Cl` [Example 14, 4-(2,4-Dichloroanilino)-7-(3-hydroxy-1-propynyl)-3-quinolinecarbonitrile] displayed a melting point of 251 to 253 °C.

`N#Cc1cnc2cc(-c3ccc(-c4ccccn4)s3)ccc2c1Nc1ccc(Cl)cc1Cl` [Example 18, 4-(2,4-dichloroanilino)-7-[5-(2-pyridinyl)-2-thienyl]-3-quinolinecarbonitrile]: the melting point is 270 °C (dec.).

For `COc1cc(Nc2c(C#N)cnc3cc(-c4ccc(/C=C/CN5CCOCC5)s4)ccc23)c(Cl)cc1Cl` [Example 21, 4-(2,4-Dichloro-5-methoxyanilino)-7-{5-[(E)-3-(4-morpholinyl)-1-propenyl]-2-thienyl}-3-quinolinecarbonitrile], the melting point came to 145 °C.

`COc1cc(Nc2c(C#N)cnc3cc(-c4ccc(CN5CCOCC5)c(CN5CCOCC5)c4)ccc23)c(Cl)cc1Cl` [Example 34, 7-[3,4-bis(4-morpholinylmethyl)phenyl]-4-(2,4-dichloro-5-methoxyanilino)-3-quinolinecarbonitrile] came in with a melting point of 198 to 200 °C.

In the case of `COc1cc(Nc2c(C#N)cnc3cc(-c4csc(C5OCCO5)c4)ccc23)c(Cl)cc1Cl` [Example 42, 4-(2,4-dichloro-5-methoxyanilino)-7-[5-(1,3-dioxolan-2-yl)-3-thienyl]-3-quinoline-carbonitrile], the melting point is 234 to 236 °C.

For the compound `COc1cc(Nc2c(C#N)cnc3cc(-c4csc(C=O)c4)ccc23)c(Cl)cc1Cl` [Example 43, 4-(2,4-Dichloro-5-methoxyanilino)-7-(5-formyl-3-thienyl)-3-quinolinecarbonitrile], the melting point is 259 to 262 °C (dec.).

`N#Cc1cnc2cc(-c3csc(C=O)c3)ccc2c1Nc1ccc(Cl)cc1Cl` [Example 44, 4-(2,4-dichloroanilino)-7-(5-formyl-3-thienyl)-3-quinolinecarbonitrile] yielded a melting point of 286 to 288 °C.

On to `COc1cc(Nc2c(C#N)cnc3ccc(-c4csc(C=O)c4)cc23)c(Cl)cc1Cl` [Example 45, 4-(2,4-Dichloro-5-methoxyanilino)-6-(5-formyl-3-thienyl)-3-quinolinecarbonitrile], for which the melting point is 233 to 237 °C.

Regarding `N#Cc1cnc2cc(-c3cncc(CN4CCOCC4)c3)ccc2c1Nc1ccc(Oc2ccccc2)cc1` [Example 48, 7-[5-(4-Morpholinylmethyl)-3-pyridinyl]-4-(4-phenoxyanilino)-3-quinolinecarbonitrile], the melting point was in the range of 185 to 187 °C.
